Values of other authors, collected in the CATMoS acute toxicity set (Mansouri et al. 2021).
“And” between values parts separate entries of the source, which are not always exact repeats. Equal values may be shown once.

Assay: rat acute oral toxicity
Details: in vivo

CC(=O)CC(c1ccc([N+](=O)[O-])cc1)c1c(O)c2ccccc2oc1=O (stereo not given)
LD50: 513 mg/kg

COS(=O)(=O)OC
LD50: 205 mg/kg

NC(=O)c1ccc(Cl)c(N)c1
LD50: 900 mg/kg

CCCN(CCC)C(=O)C(CCC(=O)OCCCOC(=O)Cc1c(C)n(C(=O)c2ccc(Cl)cc2)c2ccc(OC)cc12)NC(=O)c1ccccc1 (stereo not given)
LD50: 605 mg/kg

O=S(=O)(Oc1ccc(Cl)cc1)c1ccccc1
LD50: 1350 mg/kg

CCNC(=O)Oc1c(Cl)c(Cl)cc2[nH]c(C(F)(F)F)nc12
LD50: 103 mg/kg

CS(=O)(=O)c1ccc2c(c1)N(CCCN1CCC(C(N)=O)CC1)c1ccccc1S2
LD50: 976 mg/kg

CCSCc1cnc(C)c(O)c1CO
LD50: 3770 mg/kg

COc1c(O)c(Cl)c(Cl)c(Cl)c1Cl
LD50: 1690 mg/kg

NCCCC[C@H](N)C(=O)O
LD50: 11400 mg/kg and 10000 mg/kg

Cc1cc(C)c(N)cc1C
LD50: 1250 mg/kg and 1580 mg/kg

CCN(CC)CCN1C(=O)CN=C(c2ccccc2F)c2cc(Cl)ccc21
LD50: 879 mg/kg and 980 mg/kg and 978 mg/kg

CC=CC(C)OC (stereo not given)
LD50: 1210 mg/kg

CCCCCCCCCCCCCCCCCCOC(=O)Cc1ccc(N(CCCl)CCCl)cc1
LD50: 200 mg/kg

ClC1=C(Cl)C2(Cl)C3CCC4C(CCC3C1(Cl)C2(Cl)Cl)C1(Cl)C(Cl)=C(Cl)C4(Cl)C1(Cl)Cl (stereo not given)
LD50: 25000 mg/kg

CCCCN(CCCC)SN(C)C(=O)ON=CC(C)(C)SC
LD50: 12.5 mg/kg

COc1ccc2c(c1)N(CCCN(C)C)c1ccccc1S2
LD50: 730 mg/kg

Nc1c2c(nc3ccccc13)CCCC2O (stereo not given)
LD50: 176 mg/kg

Cc1ccc(=O)n(CSP(=S)(OC(C)C)OC(C)C)n1
LD50: 155 mg/kg

S=c1[nH]cnc2[nH]cnc12
LD50: 277 mg/kg

CC(=O)NNC(=O)c1ccccn1
LD50: 673 mg/kg

CCOc1cc(C=O)ccc1O
LD50: 1590 mg/kg

CNC(=O)Oc1ccccc1C1SCCS1
LD50: 90 mg/kg

O=C(O)Cc1ccccc1Nc1c(Cl)cc(Cl)c2ccccc12
LD50: 56.2 mg/kg

c1ccc(NC[Si]23OCCN(CCO2)CCO3)cc1
LD50: 0.328 mg/kg

COc1ccc(N)c(OC)c1
LD50: 464 mg/kg

CCOc1ccc(-c2ccccc2)cc1CN1CCCC1
LD50: 30 mg/kg

CCc1c(Cl)ccc(O)c1Cl
LD50: 2260 mg/kg

CO[Si](CCl)(OC)OC
LD50: 500 mg/kg

CCCCCCCCCCCCCCOC(=O)Cc1ccc(N(CCCl)CCCl)cc1
LD50: 46 mg/kg

CCSCc1ccccc1OC(=O)NC
LD50: 200 mg/kg

CN(C)N=Nc1ccc(-c2ccccc2)cc1
LD50: 347 mg/kg

COc1ccccc1N1CCN(CCC(=O)c2ccc(N3CCOCC3)cc2)CC1
LD50: 400 mg/kg

O=C(OCC(O)C1COc2ccccc2O1)N1CCOCC1 (stereo not given)
LD50: 1500 mg/kg

CNC(=O)Oc1cccc2c1OC(C)(C)O2
LD50: 40 mg/kg
